The source of these data is patent US20050089495A1, “Transdermal transport of compounds” (priority 2001, published 2005).

Where a name gives a salt, the structure may show the parent alone.

For data set [1] the following is noted: females using the patches; cited from earlier work.
Data set [2] is described as follows: Acute transdermal penetration of 3H-Estradiol and 3H-Estradiol Phosphate in the hairless rat model. The conditions noted are these: 24-hour period. The format is in vivo, female albino hairless rats.
Data set [3] can be described thus: Transdermal delivery of estradiol and estradiol phosphate in the hairless rat model; total estrogens RIA in plasma.
Data set [4] in a line: Transdermal delivery of testosterone and testosterone phosphate in the hairless rat model; total testosterone in plasma. The conditions noted are these: topical carrier cream; for concentration of testosterone in blood after application: 1 μg.
Data set [5] concerns rats. Put plainly: Efficacy of atropine phosphate compared to atropine sulfate: heart rate after intravenous administration. The format is in vivo. The conditions noted are these: for heart rate after administration: IV 2 mg/kg in phosphate buffer, baseline approx. 350 bpm. The protocol:
The efficacy of atropine phosphate when compared to atropine sulfate was investigated in this example.
Atropine sulfate and atropine phosphate formulated in phosphate buffer and given intravenously (IV) each to two rats at 2 mg/kg resulted similar increases in heart rates.
For example, the baseline heart rate of a rat was approx. 350 bpm and increased to 450 bpm within 15 minutes after administration of atropine (either atropine phosphate or atropine sulfate). Approximately two hours later, normal heart rates were restored. This is regarded as a significant change in pulse rate.

For the compound `C[C@]12CC[C@@H]3c4ccc(O)cc4CC[C@H]3[C@@H]1CC[C@@H]2O` [E, Estradiol], the “females reporting skin irritation” value in data set [1] was “up to 17%”.
As to `C[C@]12CC[C@@H]3c4ccc(O)cc4CC[C@H]3[C@@H]1CC[C@@H]2OP(=O)(O)O` [EP, Estradiol Phosphate], the “levels in the epidermis and dermis” value in data set [2] is listed as “Higher levels”. Further, the “plasma concentration of the hormone compared to the E treatment” value in data set [3] (equivalent doses applied, 24-hour period) was “at least twice”. Further, the “concentration of estradiol in blood versus estradiol application” value in data set [3] (over a 24-hour period, P<0.01 at 2, 4 and 16 hours) was “consistently higher”.
Take `C[C@]12CC[C@H]3[C@@H](CCC4=CC(=O)CC[C@@]43C)[C@@H]1CC[C@@H]2O` [T, Testosterone]: in data set [4], the “concentration of testosterone in blood after application” value is listed as “increased”. Further, the “maximum concentration of total testosterone in plasma (mean±SD)” value in data set [4] (1 μg on about 4 cm^2 dorsal skin, baseline t=0 subtracted) is 30.90 ± 11.00 pg/mL.
Take `CN1[C@@H]2CC[C@H]1CC(OC(=O)C(CO)c1ccccc1)C2.O=P(O)(O)O` (stereo partly drawn) [atropine phosphate]: in data set [5] (IV 2 mg/kg), the “effect on pulse rate” value is “effective to increase pulse rate” and the “time until normal heart rates were restored” value was “Approximately two”. Further, the “heart rate after administration” value in data set [5] came to 450 bpm.
For the compound `CN1[C@@H]2CC[C@H]1C[C@@H](OC(=O)C(CO)c1ccccc1)C2` (stereo partly drawn) [atropine sulfate, reference compound], the “time until normal heart rates were restored” value in data set [5] (IV 2 mg/kg) was “Approximately two”. Further, the “heart rate after administration” value in data set [5] is 450 bpm.
With Testosterone Phosphate [TP], the “concentration of testosterone in blood after application” value in data set [4] is listed as “increased”.
